Laboratory results from US20060052455A1, “Composition for preventing treating the xepression of clinical symptom in disease caused by mitochondrial dysfunction” (priority 2002, published 2006).

System: MELAS patients
Test: Intravenous drip infusion of L-arginine monohydrochloride to MELAS patients
Type: in vivo, human
From the text: This treatment by intravenous injection is, however, not convenient for MELAS patients, because, in order to receive intravenous injection in the acute stage of cerebral apoplexy-like episode, they have to go to the hospital to receive such intravenous injection immediately after the episode has occurred. […] The scintillating scotoma refers to an abnormal visual field which is one of warning symptoms of a cerebral apoplexy-like episode, and when it occurs, a riffle-like light suddenly appears in a part of the visual field and usually lasts for 5 to 30 minutes. Moreover, administration of a large amount of L-arginine monohydrochloride into a blood vessel may presumably cause side effects such as drop in blood pressure, hydrochloric acidosis, or the like.

With `Cl.N=C(N)NCCC[C@H](N)C(=O)O` [L-arginine monohydrochloride] the “treatment of the acute stage of cerebral apoplexy-like episode due to MELAS” value (intravenous drip infusion, three patients) was “effective” and the “improvement of warning symptoms of the episode, particularly scintillating scotoma” value (intravenous injection) was “cannot improve”.
